In PMC10525132, “Potent Antioxidant and Anti-Tyrosinase Activity of Butein and Homobutein Probed by Molecular Kinetic and Mechanistic Studies” (Antioxidants, 2023):
Like-named read-outs stand apart in the source and are kept apart here.

What was measured:
[1] = target: T1, mushroom tyrosinase (mTYR) (Agaricus bisporus, UniProt C7FF04); conditions: previous report, cited from earlier work
T1 construct: purchased Sigma-Aldrich (Milan, Italy)

[2] = target: T1, mushroom tyrosinase (mTYR); assay: Inhibition of mushroom tyrosinase diphenolase reaction (substrate L-dopa, dopachrome at 475 nm); format: biochemical; conditions: for Vmax^app / IC50: 30 °C; for Vmax^app: pH 6.8, L-dopa; for IC50: IC50 Diphenolase; for Ki: KI Competitive; for inhibition mode, diphenolase: from M-M and Lineweaver–Burk plots
Experimental: Measurements were performed at 30 °C in phosphate buffer (50 mM, pH 6.8) in polystyrene low-volume cuvettes (1.5 mL, l = 1 cm) with a double-beam spectrophotometer. […] The reaction was monitored at 475 nm for up to 60 min, following dopachrome formation. Initial velocity (V = ΔA/Δmin) was converted in μM/min according to Lambert–Beer law using the molar extinction coefficient ε = 3700 M^−1cm^−1 for dopachrome at λmax = 475 nm. Michaelis–Menten parameters (Km e Vmax) were obtained by processing initial velocity vs. substrate concentration data by non-linear fitting to M-M Equation (4), using Sigmaplot 11.0 (Systat Software Inc., San Jose, CA, USA). Linearized Lineweaver–Burk Equation (5) was used to identify the inhibition mode. In both equations, V indicates the measured initial rate of reaction, [S] is the initial substrate concentration, while Vmax and Km are, respectively, the maximum reaction rate (at saturating substrate concentration) and the M-M constant, with the substrate concentration yielding half-maximum rate.
(10) KI=[I]/α−1 and KI′=[I]/α^′−1 where (11) α=(Kmapp × α^′)/Km and α^′=Vmax/Vmaxapp
Determination of M-M inhibition constants KI and KI′, along with assignment of the inhibition mode, is the most reliable method to accurately quantify the potency of enzyme inhibitors, as it is independent of the experimental settings, like substrate and enzyme concentrations.

[3] = Radical equilibration EPR (ReqEPR) for the O-H bond dissociation enthalpy; format: physicochemical
Experimental: Deoxygenated acetonitrile solutions containing the phenols (0.01–0.001 M) and di-tert-butyl peroxide (10% v/v) were sealed under nitrogen in a 2 mm ID suprasil quartz EPR tube. The sample was inserted in the thermostatted (30 °C) cavity of an X-band EPR spectrometer and photolyzed with a mercury–xenon lamp (240–400 nm, max 4500 mW/cm^2). Spectra were recorded with the following settings: modulation amplitude 0.2–1 Gauss, sweep width 30–60 Gauss, modulation frequency 100 kHz, frequency 9.76 GHz, sweep time 60 s, and microwave power 0.1–1 mW. Measured g-factors were corrected with respect to that of TEMPO (g = 2.0064) and of DPPH radical. In ReqEPR experiments, mixtures of TBP and butein were analyzed to obtain the molar ratio of the two equilibrating radicals by comparison of the digitized experimental spectra with computer-simulated ones, as previously described. This afforded the equilibrium constant, Keq. Different irradiation power levels (20% to 100%) and different ratios of the two phenols were tested to guarantee that the two species were at equilibrium.
The reactivity of (phenolic) chain-breaking antioxidants toward formal hydrogen atom transfer (HAT) to a radical such as peroxyl radicals is dictated by the strength of the phenolic O-H bond being broken, i.e., by its bond dissociation enthalpy (BDEOH), and by the steric hindrance in ortho position to the reactive OH [40, 41]. Indeed, there are well-established Evans–Polanyi linear free-energy correlations between the BDEOH and the inhibition rate constant kinh for phenolic antioxidants. One very accurate method to measure the BDEOH is via radical equilibration experiments using electron paramagnetic resonance spectroscopy, the ReqEPR technique. It consists of photolyzing the “unknown” phenol to be studied (^UPhOH) in a mixture with a reference phenol (^RPhOH) in the cavity of the EPR spectrometer with the addition of a peroxide (e.g., di-tert-butylperoxide) as a photochemical initiator. Analysis and deconvolution of the EPR spectrum containing both equilibrating radical species affords the equilibrium constant Keq (see Figure 3), which in turn allows determining the ∆G° of equilibration. Since it has been shown that ∆S° is negligible for such an equilibrium, this affords the BDEOH of ^UPhOH if the value is known for ^RPhOH (Figure 3A).
To convert this value into a gas-phase equivalent, it is necessary to correct for the effect of the solvent, which increases the apparent BDE value by H-bonding to the phenols (see Figure 3B). Such solvent effects can be accounted for quantitatively, as detailed in Figure 3B, by using Abraham’s solvatochromic parameters α2^H and β2^H, describing, respectively, the H-bond donating ability of the phenol and the H-bond accepting ability of the solvent. Considering that the solvent effect is negligible for TBP due to steric hindrance by the t-butyl groups in ortho [40], that α2^H for catechol is 0.73 and β2^H for acetonitrile is 0.39 [42], the DBE measured in acetonitrile must be downscaled by −1.4 kcal/mol to afford BDEOH = 78.4 ± 0.2 kcal/mol for butein in apolar solvent/gas-phase.

[4] = target: T1, mushroom tyrosinase (mTYR); conditions: cited from earlier work
[5] = diphenolase, average over inhibitor concentrations
[6] = diphenolase, inhibitor 0.175 µM

T1 sequence (C7FF04 1-392): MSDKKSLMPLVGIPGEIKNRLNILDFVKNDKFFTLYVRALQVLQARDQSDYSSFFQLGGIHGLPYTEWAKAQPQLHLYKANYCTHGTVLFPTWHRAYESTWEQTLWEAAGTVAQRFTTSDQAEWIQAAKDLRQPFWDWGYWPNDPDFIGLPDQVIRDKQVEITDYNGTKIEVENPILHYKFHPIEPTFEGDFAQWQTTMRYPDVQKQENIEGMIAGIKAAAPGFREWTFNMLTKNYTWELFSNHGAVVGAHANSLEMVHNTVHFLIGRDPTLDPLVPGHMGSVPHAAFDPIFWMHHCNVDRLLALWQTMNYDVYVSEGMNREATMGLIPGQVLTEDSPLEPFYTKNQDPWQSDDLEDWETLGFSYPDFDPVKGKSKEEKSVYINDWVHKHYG

## O=C(/C=C/c1ccc(O)c(O)c1)c1ccc(O)cc1O [Butein, (E)-1-(2,4-dihydroxyphenyl)-3-(3,4-dihydroxyphenyl)prop-2-en-1-one]
[1]; monophenolase, competitive
  Ki: 1410 µM
[1]
  inhibition mode, monophenolase: competitive
[2]; inhibitor 1.4 µM
  Vmax^app: 10.93 ± 0.22 µM/min
[2]; inhibitor 2.8 µM
  Vmax^app: 10.60 ± 0.88 µM/min
[2]; inhibitor 5.6 µM
  Vmax^app: 8.17 ± 0.21 µM/min
[2]; inhibitor 11.2 µM
  Vmax^app: 7.42 ± 0.26 µM/min
[2]; pH 6.8, L-dopa 0.05 mM
  IC50: 3.76 ± 0.96 µM
[2]; pH 6.8, L-dopa 0.125 mM
  IC50: 4.12 ± 1.39 µM
[2]; pH 6.8, L-dopa 0.25 mM
  IC50: 5.38 ± 0.9 µM
[2]; pH 6.8, L-dopa 0.50 mM
  IC50: 9.31 ± 0.85 µM
[2]; pH 6.8, L-dopa 1.00 mM
  IC50: 15.2 ± 1.25 µM
[2]; [5]
  Ki: 3.3 ± 0.75 µM
  KI′ Uncompetitive: 18.75 ± 5.15 µM
[2]; diphenolase, inhibitor 1.4 µM
  Ki: 3.21 µM
  KI′ Uncompetitive: 18.04 µM
[2]; diphenolase, inhibitor 2.8 µM
  Ki: 2.59 µM
  KI′ Uncompetitive: 25.24 µM
[2]; diphenolase, inhibitor 5.6 µM
  Ki: 3.07 µM
  KI′ Uncompetitive: 12.68 µM
[2]; diphenolase, inhibitor 11.2 µM
  Ki: 4.35 µM
  KI′ Uncompetitive: 19.05 µM
[2]; diphenolase
  KI (competitive) lower than KI′ (uncompetitive): about 5 fold
[2]
  inhibition mode, diphenolase: mixed-type
[3]; ReqEPR vs TBP, corrected for solvent to apolar solvent/gas-phase
  BDEOH: 78.4 ± 0.2 kcal/mol
[3]; ReqEPR vs TBP, corrected for solvent to apolar solvent/gas-phase, listed as butein
  BDEOH: 78.4 kcal/mol
[3]; difference to α-TOH
  BDEOH higher compared to α-TOH: 1.3 kcal/mol
[3]; in acetonitrile at 298 K
  Keq (radical equilibration with TBP): 1.64 ± 0.63
[3]; in acetonitrile at 298 K, not corrected for solvent
  BDEOH: 79.8 ± 0.2 kcal/mol
[3]; suggested from structure
  BDEOH of any OH group in A ring: > 86 kcal/mol
[4]
  effect toward diphenolase reaction (reported): ineffective
[4]; even at concentrations > 100 µM
  diphenolase inhibition (reported effect): poorly effective

## COc1cc(/C=C/C(=O)c2ccc(O)cc2O)ccc1O [Homobutein, (E)-1-(2,4-dihydroxyphenyl)-3-(4-hydroxy-3-methoxyphenyl)prop-2-en-1-one]
[2]; inhibitor 0.175 µM
  Vmax^app: 11.48 ± 0.22 µM/min
[2]; inhibitor 0.70 µM
  Vmax^app: 11.30 ± 0.88 µM/min
[2]; inhibitor 1.4 µM
  Vmax^app: 11.10 ± 0.21 µM/min
[2]; inhibitor 5.6 µM
  Vmax^app: 10.84 ± 0.26 µM/min
[2]; pH 6.8, L-dopa 0.05 mM
  IC50: 3.04 ± 0.84 µM
[2]; pH 6.8, L-dopa 0.125 mM
  IC50: 3.83 ± 0.94 µM
[2]; pH 6.8, L-dopa 0.25 mM
  IC50: 5.6 ± 1.07 µM
[2]; pH 6.8, L-dopa 0.50 mM
  IC50: 7.57 ± 1.11 µM
[2]; pH 6.8, L-dopa 1.00 mM
  IC50: 12.4 ± 2 µM
[2]; [5]
  Ki: 2.5 ± 1.56 µM
  KI′ Uncompetitive: 38.24 ± 27.81 µM
[2]; [6]
  Ki: 1.28 µM
  KI′ Uncompetitive: 16.75 µM
[2]; diphenolase, inhibitor 0.70 µM
  Ki: 1.54 µM
  KI′ Uncompetitive: 26.38 µM
[2]; diphenolase, inhibitor 1.4 µM
  Ki: 2.46 µM
  KI′ Uncompetitive: 30.83 µM
[2]; diphenolase, inhibitor 5.6 µM
  Ki: 4.72 µM
  KI′ Uncompetitive: 79.01 µM
[2]; diphenolase
  lowest concentration with clear inhibition detectable: 175 nM
[2]
  inhibition mode, diphenolase: nearly competitive
[3]; estimated from the value for butein by additive contribution of substituents
  BDEOH: 82.6 ^1 kcal/mol
[3]; estimated from the value for butein by additive contribution of substituents, listed as HB
  BDEOH: 82.6 kcal/mol
[3]; estimated from the value for butein by additive contribution of substituents, listed as homobutein
  BDEOH: ~ 82.6 kcal/mol
